Target: T1, DesB (Sphingomonas paucimobilis, UniProt Q5NTE5)
T1 construct: overexpressed in E. coli, purified to near homogeneity; swapped homodimer with active sites at the subunit interface; 418 residues; Fe(II) form
T1 sequence (Q5NTE5 1-418): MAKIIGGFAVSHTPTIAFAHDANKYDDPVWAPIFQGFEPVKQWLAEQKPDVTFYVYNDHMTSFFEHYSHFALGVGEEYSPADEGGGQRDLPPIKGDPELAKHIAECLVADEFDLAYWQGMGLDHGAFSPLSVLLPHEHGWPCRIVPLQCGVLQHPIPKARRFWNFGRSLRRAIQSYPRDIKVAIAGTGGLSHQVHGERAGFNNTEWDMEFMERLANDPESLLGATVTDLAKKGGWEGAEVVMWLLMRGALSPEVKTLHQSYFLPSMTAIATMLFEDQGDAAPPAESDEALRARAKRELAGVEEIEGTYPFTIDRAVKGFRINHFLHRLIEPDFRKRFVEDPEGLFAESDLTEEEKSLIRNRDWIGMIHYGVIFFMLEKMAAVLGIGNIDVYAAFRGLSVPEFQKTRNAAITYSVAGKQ
Experiment: X-ray crystal structure (soak)
Assay type: binding
Conditions: anaerobic, pH 7.75, Fe(II), active site, 2.40 A

Row | SMILES | X-ray crystal structure (soak) (10 mM gallate soak, further complexes 3WKU, 3WPM (co-crystal), 3WR3, 3WR4) | X-ray crystal structure (soak) (10 mM PCA soak, flipped non-productive binding, not turned over)
1 | O=C(O)c1cc(O)c(O)c(O)c1 [gallate] | gallate is bound to the active site through several hydrogen bonds | 
2 | O=C(O)c1ccc(O)c(O)c1 [PCA] |  | bound PCA was found in the active site of the anaerobic DesB-PCA complex
